Common to all, as to test: MIC determination and synergy testing (Kull synergy index), microplate
Type in all cases: cell-based

Test [1] has as its system Candida albicans ATCC 10231. To be noted: for QB, MIC of PE alone: plates 116B, 240B, 252B; for QB, MIC of MP alone: plate 128B. How it is done:
(§1) The test cultures are listed in Table 7 along with the incubation temperatures used for growth and minimum inhibitory concentration (MIC) testing. […] C. albicans was cultured in Sabouraud dextrose broth (SDB) for approximately 44-52 hours for preparation of inoculum. A. niger was cultured on Sabouraud dextrose agar (SDA) for 3-4 days until there was confluent growth and visible spore formation. Spores were harvested from the SDA plates by flooding the surface of the plate with 5-10 mL of phosphate-buffered saline (PBS) and gently spreading the liquid across the surface of the plate with a sterile T-shaped plastic spreader (Copan Diagnostics) until there was a well-mixed suspension of spores. The resulting spore suspension was collected using a serological pipette and stored at 2-8° C. until use.
(§2) Inoculum concentration was determined by dilution plating of the cultures or spore suspension. A serial dilution in PBS was made to 10^−8 for the bacterial cultures or 10^−5 for the fungal cultures. Fifty or 100 μL of the final dilution was spread on two Trypticase-soy agar (TSA) plates for bacteria or two SDA plates for fungi. After 24 to 48 hours plates were counted and the concentrations used in each experiment were calculated.
(§3) The antimicrobial agents tested for synergy along with the respective diluents and working stock solution concentrations are shown below. For determination of MIC ranges, individual antimicrobial agent stock solutions were added to sterile medium to yield the highest level test concentrations, and then serially diluted in the medium to prepare the range of test concentrations. For synergy testing individual test concentrations were prepared in sterile medium, and then blended to form the desired combinations.
(§4) MICs were determined using a high-throughput microplate method. Individual antimicrobial agents were added to TSB (pH 7.3) for bacterial testing or SDB (pH 5.6) for fungal testing at the highest concentration to be tested. A serial dilution series was prepared at a dilution ratio of 1:1.3333 such that a one log range was covered in nine dilutions. Two-hundred microliters of the diluted antimicrobial agents were dispensed into four wells each of a sterile, 96-well, flat-bottom microplate (Nalge Nunc International). Four additional wells of the highest concentration were dispensed to serve as uninoculated high-level controls. Eight additional wells containing only broth medium were also prepared, four to serve as negative controls and four as positive controls. Three wells of each antimicrobial agent dilution were inoculated with one of the test strains in Table 7. The final well of each antimicrobial agent dilution was left uninoculated to serve as a control (and means of compensating) for any absorbance/turbidity due to the test compounds.
(§5) Microplates were inoculated using the cultures or spore suspensions prepared as described above. The S. aureus cultures were used undiluted, while the E. coli and P. aeruginosa cultures were used either undiluted or after a 1:2 dilution in sterile TSB. The C. albicans cultures were used either undiluted or following a 2-fold concentration by centrifugation. One of two means of inoculation was used to deliver a final concentration of approximately 10^5 colony-forming units (CFU)/mL of C. albicans, 10^5 spores/mL of A. niger, or 10^6 CFU/mL of bacteria. The primary method used a stainless steel pin replicator (Nalge Nunc International) mounted on a hand-operated bench-top press (Schmidt Technology Corporation) fitted with a custom-built microplate holder to dispense one microliter of each inoculum from a “master” plate containing 50-100 μL of culture into the wells of the test plate. The pin replicator was sterilized before and between inoculations by immersing in ethanol and flaming. The alternative method of inoculation was by directly pipetting 20 μL of a 1:20 dilution of each culture or spore suspension into the appropriate wells of the test plates.

The subject of test [2] is Aspergillus niger ATCC 16404. The following applies: for QB, MIC of PE alone / QB, MIC of CG alone: A. niger; for QB, MIC of PE alone: plates 122C, 242C. As to the method:
as §1, §2
The A. niger spore suspensions were concentrated to a level of 1-2×10^8 spores/mL by centrifugation and resuspension in a portion of the resulting supernatant.
as §3, §4
Microplates were inoculated using the cultures or spore suspensions prepared as described above. The S. aureus cultures were used undiluted, while the E. coli and P. aeruginosa cultures were used either undiluted or after a 1:2 dilution in sterile TSB. The C. albicans cultures were used either undiluted or following a 2-fold concentration by centrifugation. One of two means of inoculation was used to deliver a final concentration of approximately 10^5 colony-forming units (CFU)/mL of C. albicans, 10^5 spores/mL of A. niger, or 10^6 CFU/mL of bacteria. The primary method used a stainless steel pin replicator (Nalge Nunc International) mounted on a hand-operated bench-top press (Schmidt Technology Corporation) fitted with a custom-built microplate holder to dispense one microliter of each inoculum from a “master” plate containing 50-100 μL of culture into the wells of the test plate. The pin replicator was sterilized before and between inoculations by immersing in ethanol and flaming. […]

For test [3], the system named is Escherichia coli ATCC 25922. The following applies: E. coli; for QB, MIC of PE alone: plates 105A, 213A, 223A; for QB, MIC of MP alone: plate 108A. How it is done: as §1, §2, §3, §4, §5
Test [4] concerns Staphylococcus aureus ATCC 25923. The following applies: for QB, MIC of CG alone: plate 125D. As to the method:
as §1, §2, §3, §4, §5

For test [5], the system named is Pseudomonas aeruginosa ATCC 27853. The following applies: for QB, MIC of CG alone: P. aeruginosa, plate 169E. As to the method: as §1, §2, §3, §4, §5
Setting [6] is: C. albicans, day 2 of incubation.
The mark [7] stands for this setting: C. albicans, day 3 of incubation.

The results in this text go back to patent publication US20110028566A1, “COMPOSITIONS AND PRODUCTS CONTAINING CYCLOALIPHATIC DIOL ANTIMICROBIAL AGENTS AND METHODS OF USING THE COMPOSITIONS AND PRODUCTS” (EASTMAN CHEMICAL COMPANY, priority 2009, published 2011).

“And” between values parts separate entries of the source, which are not always exact repeats. Equal values may be shown once.

Take `OCCOc1ccccc1` [Phenoxyethanol (PE)]: the “QB, MIC of PE alone” value is 0.22 weight percent and 0.27 weight percent and 0.23 weight percent in test [1] (setting [6]); 0.22 weight percent and 0.27 weight percent and 0.30 weight percent in test [1] (setting [7]); 0.24 weight percent and 0.30 weight percent in test [2] (day 2 of incubation); 0.24 weight percent and 0.40 weight percent in test [2] (day 3 of incubation); 0.36 weight percent and 0.33 weight percent and 0.48 weight percent in test [3] (day 1 of incubation); 0.48 weight percent and 0.36 weight percent and 0.43 weight percent in test [3] (day 2 of incubation). The “QB, MIC of PE alone” value in test [4] (S. aureus, day 2 of incubation, plates 124D, 219D) was 0.73 weight percent and 0.55 weight percent.

Consider `COC(=O)c1ccc(O)cc1` [Methylparaben (MP)], for which the “QB, MIC of MP alone” value in test [1] (setting [6]) is listed as 0.060 weight percent; in test [1] (setting [7]), 0.080 weight percent; in test [3] (day 1 of incubation) it was 0.112 weight percent; in test [3] (day 2 of incubation) it was 0.112 weight percent.

For `Cn1sccc1=O` [MIT, Methylisothiazolinone, reference compound], the QB/b is recorded as 0.012 in test [1] (MIT: MIC alone (QB) or conc. in combination with CHDM (b), plate 162B, day 3); 0.021 in test [1] (MIT: MIC alone (QB) or conc. in combination with CHDM (b), plate 200B, day 2); 0.021 in test [1] (MIT: MIC alone (QB) or conc. in combination with CHDM (b), plate 200B, day 3); 0.04 in test [2] (MIT: MIC alone (QB) or conc. in combination with CHDM (b), plate 193C, day 2); 0.03 in test [2] (MIT: MIC alone (QB) or conc. in combination with CHDM (b), plate 193C, day 3); 0.04 in test [2] (MIT: MIC alone (QB) or conc. in combination with CHDM (b), plate 214C, day 2). Moreover, the QB/b in test [2] (MIT: MIC alone (QB) or conc. in combination with CHDM (b), plate 214C, day 3) is given as 0.04; in test [5] (MIT: MIC alone (QB) or conc. in combination with CHDM (b), plate 147E, day 1), 0.00053; in test [5] (MIT: MIC alone (QB) or conc. in combination with CHDM (b), plate 147E, day 2), 0.00093; in test [5] (MIT: MIC alone (QB) or conc. in combination with CHDM (b), plate 210E, day 1) it was 0.0006; in test [5] (MIT: MIC alone (QB) or conc. in combination with CHDM (b), plate 210E, day 2), 0.001; in test [5] (MIT: MIC alone (QB) or conc. in combination with CHDM (b), plate 249E, day 1) it was 0.00048. The QB/b stood at 0.0009 in test [5] (MIT: MIC alone (QB) or conc. in combination with CHDM (b), plate 249E, day 2) and 0.002 in test [4] (MIT: MIC alone (QB) or conc. in combination with CHDM (b), plate 137D, day 2). In addition, the “Synergism of antimicrobial agent in combination with 1,4-CHDM for P. aeruginosa (in words; in the 12th table the cell names the organism and table number)” value in test [5] (Kull synergy index, synergistic when at least two results SI<1) is on record as “P. aeruginosa (26)”.

As to `CCCCCCC(O)CO` (centres unmarked) [Caprylyl glycol (CG)], the “QB, MIC of CG alone” value is 0.11 weight percent and 0.22 weight percent in test [1] (C. albicans, day 3 of incubation, plates 117B, 254B); 0.17 weight percent and 0.10 weight percent in test [2] (day 2 of incubation, plates 123C, 217C); 0.13 weight percent in test [2] (day 3 of incubation, plate 123C); 0.23 weight percent in test [5] (day 1 of incubation); 0.30 weight percent in test [5] (day 2 of incubation); 0.30 weight percent in test [5] (day 3 of incubation). For the same molecule, the “QB, MIC of CG alone” value in test [4] (S. aureus, day 1 of incubation) came out at 0.24 weight percent; in test [4] (S. aureus, day 2 of incubation) it was 0.32 weight percent.

For `CC1(C)C(=O)N(CO)C(=O)N1CO` [DMDMH, DMDM Hydantoin, reference compound], the QB/b worked out at 0.22 in test [1] (DMDM hydantoin alone (QB) or in combination with CHDM (b), plate 241B, day 2); 0.22 in test [1] (DMDM hydantoin alone (QB) or in combination with CHDM (b), plate 241B, day 3); 0.36 in test [1] (DMDM hydantoin alone (QB) or in combination with CHDM (b), plate 244B, day 2); 0.36 in test [1] (DMDM hydantoin alone (QB) or in combination with CHDM (b), plate 244B, day 3); 0.45 in test [1] (DMDM hydantoin alone (QB) or in combination with CHDM (b), plate 263B, day 2); 0.80 in test [1] (DMDM hydantoin alone (QB) or in combination with CHDM (b), plate 263B, day 3). In addition, the QB/b was found to be 0.34 in test [1] (DMDM hydantoin alone (QB) or in combination with CHDM (b), plate 264B, day 2); 0.60 in test [1] (DMDM hydantoin alone (QB) or in combination with CHDM (b), plate 264B, day 3); 0.14 in test [2] (DMDM hydantoin alone (QB) or in combination with CHDM (b), plate 196C, day 3); 0.049 in test [5] (DMDM hydantoin alone (QB) or in combination with CHDM (b), plate 150E, day 1).
